Reference: US8138338B2, “Aurora kinase inhibitors from an encoded small molecule library” (GlaxoSmithKline LLC, priority 2006, dated 2012)

Legend:
[1] = tested on: HCT116 (human colorectal cancer cells); test: Cell proliferation assay (MTT) using HCT-116 cell line; assay type: cell-based; settings: 72 h, human carcinoma cell line HCT-116, three days
Protocol: Cell proliferation assay for Aurora-A compounds using HCT-116 Cell Line HCT116 (human colorectal cancer cells) was obtained from the American Type Culture Collection (Cat. No. CCL-247, Rockville, Md.). Cells were maintained in monolayer culture in McCoy's 5A supplemented with 10% fetal bovine serum (FBS; Omega Scientific, Tarzana, Calif.), 2 mM L-glutamine, 50 IU/ml penicillin and 50 μg/ml streptomycin (Gibco/Invitrogen, Carlsbad, Calif.) in a humidified incubator with 95% air and 5% CO2 at 37° C.
A single cell suspension was prepared by trypsinization, to provide 1.25E4 cells per mL in their respective culture medium. 96 well plates were seeded with 200 μl/well of the cell suspension to provide an initial seeding density of 2500 cells per well. The plates were placed in a tissue culture incubator (5% CO2, 37° C.) overnight to let cells become adherent.
Serial dilutions of the testing compounds were prepared at final concentrations in culture medium from a 10 mM stock solution, and assayed in triplicate. The vehicle was prepared by adjusting culture medium to 0.1% v/v DMSO which corresponds to the concentration of DMSO in the wells with test compounds. Test plates were then placed in a tissue culture incubator (5% CO2, 37° C.) for three days after which the MTT assay was performed.
The MTT assay is a measure of cell viability based on cellular dehydrogenase enzymatic cleavage of the tetrazolium rings in MTT the product of which is measured spectrophotometrically. A 25 μL aliquot of 5 mg/mL MTT (3′[4,5-dimethylthiazol-2-yl]-2,5-diphenyl-tetrazolium bromide, Sigma Cat. No. M2128) prepared in PBS was added directly to the wells. The plates were incubated at 37° C. for two hours, the MTT solution was removed, 150 μL of isopropanol was added to each well, and the plates were rocked at room temperature for 10 minutes. The optical density of the wells was quantitated with a Labsystems Multiskan plate spectrophotometer at 570 nm. Replicate readings were averaged. The results are expressed as a percent of OD signal from control.

[2] = tested on: secretion of TNF-α from LPS-stimulated human monocytes; test: LPS-induced TNF-alpha production in human THP-1 cell line; assay type: cell-based; settings: LPS-stimulated human monocytes (THP-1), 4 hr; read-out: EC50 for inhibition of TNF-α secretion
Protocol: THP-1 (human, monocytic) cell line was purchased from the American Type Culture Collection (ATCC, Cat. No. TIB 202). Cell line was passaged three times per week in RPMI 1640 (GIBCO), supplemented with 10% heat-inactivated fetal bovine serum (FBS; Omega Scientific, Tarzana, Calif.), 2 mM L-glutamine, 100 U/ml penicillin and 100 μg/ml streptomycin (Gibco/Invitrogen, Carlsbad, Calif.) in a humidified incubator with 95% air and 5% CO2 at 37° C.
For the assay THP-1 cells were harvested, counted and suspended at 1E6 cells/ml in culture medium. […] of cell suspension was added to each well at 96 well plates to provide density of 2×10^5 cells per well. Serial dilutions of P38 compounds were prepared at final concentrations in culture medium from a 10 mM stock solution, and assayed in triplicate. Vehicle was prepared by adjusting culture medium to 0.1% v/v DMSO which corresponds to the concentration of DMSO in the wells with test compounds.
Cells were incubated in presence of the P38 inhibitor for 30 min. After that cells were stimulated with LPS (E. coli 026:B6, 1 μg/ml) for 4 hr at 37° C. in a 5% CO2-incubator. Reaction was stopped by placing samples on ice and centrifuging for 10 min at 1500×g at 4° C. Cell supernatants were harvested and concentration of TNF- was determined by ELISA (BD Pharmingen, San Diego, Calif., Cat. No. 555212), following the manufacturer's instruction. Absorbance read and analyzed at 450 nm on a spectrophotometric ELISA plate reader (Labsystems Multiskan MCC/340). Replicate readings were averaged and the results are expressed as a percent of OD signal from control.

Row | EC50 [1] [µM] | EC50 [2] [µM] | SMILES
1 |  | 0.011 | CONC(=O)c1ccc(C)c(Nc2nc(NCC3CCCC(CN)C3)nc(NC3CCCCC3)n2)c1 (stereo not shown) [Compound 11]
2 |  | 0.122 | CONC(=O)c1ccc(C)c(Nc2nc(NCc3cccc(C)c3)nc(N[C@H](C)C(C)(C)C)n2)c1 [Compound 12]

The remaining lines, values behind:

Row | SMILES | EC50 [1] [µM] | EC50 [2] [µM]
3 | C=CCN(c1nc(NCCc2c[nH]c3ncccc23)nc(NCc2cccn2C)n1)C1CCCCC1 [Compound 3] | 10 | 
4 | COc1ccc(Nc2nc(Nc3ccc4ncccc4c3)nc(NC(Cc3c[nH]c4ncccc34)C(N)=O)n2)cc1OC (stereo not shown) [Compound 7] | 10 | 
5 | CCCCN(C)c1nc(NCCc2ccccc2OC)nc(NCCc2c[nH]c3ncccc23)n1 [Compound 2] | 3.6 | 
6 | CCCCN(C)c1nc(NCCc2ccccc2OC)nc(NC(Cc2c[nH]c3ncccc23)C(N)=O)n1 (stereo not shown) [Compound 1] | 3.6 | 
7 | CONC(=O)c1ccc(C)c(Nc2nc(NCC3CCCC(CN)C3)nc(NC3CCCCC3C)n2)c1 (stereo not shown) [Compound 10] |  | 0.022
